{"source": "patent US6602908B2", "about": "“Suppression of carcinoma using high purity conjugated fatty acid” (priority 1999, dated 2003)", "key": {"mammary adenocarcinomas": {"test_system": "mammary adenocarcinomas", "assay": "Development of mammary tumors in laboratory animals fed dietary CLA", "type": "in vivo", "settings": "for reduction in the total number of mammary adenocarcinomas: laboratory animals", "source_text": "The synthetically prepared conjugated linoleic acid (CLA) is an effective agent in inhibiting the development of mammary tumors. Laboratory animals fed a diet comprising 0.5%, 1%, or 1.5% by weight conjugated linoleic acid (CLA) have been seen to have a reduction in the total number of mammary adenocarcinomas, in the range of about 30%, 55%, and 60%, respectively. […] Final tumor incidence and cumulative tumor weights are diminished with the administration of a therapeutically effective amount of the purified conjugated linoleic acid (CLA)."}, "breast cancer": {"test_system": "breast cancer", "settings": "mice; cited from earlier work"}, "Carcinogenesis": {"test_system": "Carcinogenesis", "settings": "in vivo; cited from earlier work"}, "[1]": {"settings": "therapeutically effective amount of purified CLA"}}}
{"molecule": "conjugated linoleic acid [CLA]", "values": [{"measurement": "inhibition of mammary cancer and protection against subsequent tumor occurrence", "setting": "mammary adenocarcinomas; dietary CLA between 0.1 and 0.5% by weight", "result": "dose-dependent inhibition"}, {"measurement": "reduction in the total number of mammary adenocarcinomas", "setting": "mammary adenocarcinomas; diet comprising 0.5% by weight CLA", "result": "about 30%"}, {"measurement": "reduction in the total number of mammary adenocarcinomas", "setting": "mammary adenocarcinomas; diet comprising 1% by weight CLA", "result": "~55", "unit": "%"}, {"measurement": "reduction in the total number of mammary adenocarcinomas", "setting": "mammary adenocarcinomas; diet comprising 1.5% by weight CLA", "result": "~60", "unit": "%"}, {"measurement": "cumulative tumor weights", "setting": "mammary adenocarcinomas; [1]", "result": "diminished"}, {"measurement": "final tumor incidence", "setting": "mammary adenocarcinomas; [1]", "result": "diminished"}, {"measurement": "effect on breast cancer", "setting": "breast cancer", "result": "preventive effects"}]}
{"molecule": "CCCCC/C=C\\C/C=C\\CCCCCCCC(=O)O", "note": "[Linoleic acid, 9-cis, 12-cis octadecadienoic acid]", "values": [{"measurement": "effect on Carcinogenesis", "setting": "Carcinogenesis", "result": "enhance Carcinogenesis"}]}
